Measured values from patent publication US12564555B2, “Continuous processes for manufacturing impregnated porous carriers and for manufacturing pharmaceuticals containing impregnated porous carriers” (Rutgers, The State University of New Jersey, priority 2019, dated 2026).

Assay: Dissolution test, rotating paddle method, DI water (Example 2)
Assay type: physicochemical
Details: 900 ml DI water, 50 rpm, 37° C., FIG. 4
Description: Dissolution Behavior: As part of this study, dissolution tests were performed on both pure IBU and impregnated IBU to check the effect of the impregnation process on the dissolution rate and extent of IBU. Dissolution was carried out in 900 ml of DI water at 50 rpm and 37° C. using the rotating paddle method. Samples were withdrawn at predetermined time intervals (every 3 minutes) for 60 min using a peristaltic pump attached to the dissolution device. The amount of released IBU was quantified spectrophotometrically.

CC(C)Cc1ccc(C(C)C(=O)O)cc1 (stereo not shown) [pure crystal IBU, Ibuprofen]
IBU released within 5 minutes: less than 10%
